{"source": "paper PMC7311461", "about": "“Cyclophilin D binds to the acidic C-terminus region of α-Synuclein and affects its aggregation characteristics” (Scientific Reports, 2020)", "key": {"[1]": {"test_system": "αSyn", "settings": "cited from earlier work", "from_the_text": "While the aggregation processes are well studied the same is not true for disaggregation. […] EGCG binding to the C-terminus stabilises the αSyn monomeric state and shifts the monomer-fibril equilibrium towards the less aggregated forms. […] Human Cyp40 is a multidomain protein consisting of the catalytic isomerase domain followed by four tetratricopeptide repeats. Through mutagenesis, the isomerase domain was identified as being responsible for this disaggregating activity[15] as is also shown here for CypD. CypD also interacts directly with the Alz ..."}, "[2]": {"test_system": "amyloid-β (Aβ)", "settings": "cited from earlier work", "from_the_text": "(§1) Proteins currently known to dissociate amyloid fibrils do so in either an ATP-dependent or –independent manner. Examples of the former include Hsp70, whereas the latter mode can be found in Cyclophilin 40 (Cyp40)[14],[15]. […] The effects of Cyp40 on the tau and αSyn fibrils were attributed to its peptidyl-prolyl isomerase activity. […] An emerging picture is that agents that prevent aggregation can also dissemble amyloid fibrils. […] Human Cyp40 is a multidomain protein consisting of the catalytic isomerase domain followed by four tetratricopeptide repeats. Through mutagenesis, the isomerase domain was identified as being responsible for this disaggregating activity[15] as is also shown here for CypD. CypD also interacts directly with the Alz ..."}, "[3]": {"test_system": "αSyn", "settings": "cited from earlier work", "from_the_text": "as §1", "remark": "listed apart in the source"}, "[4]": {"test_system": "tau", "settings": "cited from earlier work", "from_the_text": "Proteins currently known to dissociate amyloid fibrils do so in either an ATP-dependent or –independent manner. Examples of the former include Hsp70, whereas the latter mode can be found in Cyclophilin 40 (Cyp40)[14],[15]. […] The effects of Cyp40 on the tau and αSyn fibrils were attributed to its peptidyl-prolyl isomerase activity."}, "[5]": {"test_system": "human insulin and human lysozyme", "settings": "cited from earlier work", "from_the_text": "An emerging picture is that agents that prevent aggregation can also dissemble amyloid fibrils."}, "[6]": {"target": "T1, CypD (Homo sapiens, UniProt P30405)", "T1 construct": "His tag (TEV-cleavable, pETM11 vector) (cleaved yes); made in house; host or cells: E. coli BL21 (DE3)", "T1 sequence (P30405 43-207)": "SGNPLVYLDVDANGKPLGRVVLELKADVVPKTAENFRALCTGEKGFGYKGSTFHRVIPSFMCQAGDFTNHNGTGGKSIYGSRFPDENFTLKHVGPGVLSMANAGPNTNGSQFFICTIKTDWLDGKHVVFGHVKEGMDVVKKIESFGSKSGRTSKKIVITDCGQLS", "experiment": "1H-15N HSQC NMR of 15N-CypD, binding site identification", "settings": "15N-CypD HSQC, 20-fold excess peptide; 20 mM phosphate, 20 mM NaCl, pH 6.5", "experimental": "NMR spectra were acquired on Bruker Avance III 800 MHz spectrometer equipped with [^1H, ^15N, ^13C]-cryoprobes. […] The same buffer was used for obtaining the ^1H-^15N spectra of ^15N-labelled αSyn at 298 K. Experiments using ^15N-labelled αSyn fibrils were performed at 288 K. ^2H/^15N-labelled CypD was used to make the complex with intact αSyn in order to achieve the optimal conditions to observe shift perturbations, taking into account the size of the complex (~32kD). Backbone ^1H and ^15N resonances of CypD and αSyn were assigned using standard triple resonance to those assigned by ^13C, ^15N, ^1H-triple resonance HNCA, HN(CO)CA, HNCO, HN(CA)CO, CBCA(CO)NH, and CBCANH experiments.\nIn the analyses of the chemical shift perturbation, the chemical-shift difference was expressed as: Δδ = {(ΔH)^2 + (0.15ΔN)^2}^1/2. Values of Δδ greater than 0.07 were considered significant."}, "[7]": {"target": "T1, CypD", "experiment": "Isothermal titration calorimetry, binding to CypD wild-type", "settings": "10°C, 20 mM phosphate, 20 mM NaCl, pH 6.5", "experimental": "All ITC experiments were carried out at 10°C on an ITC200 Microcalorimeter (GE Healthcare). The buffer used was 20 mM phosphate, 20 mM NaCl at pH 6.5. Each experiment consisted of an initial injection of 0.5 µL, followed by fifteen 2.39 µL injections before a final injection of 1.89 µL. Control experiments were performed whereby each compound was titrated into buffer and buffer titrated into CypD. In both cases no heat exchange was detected, confirming that there was appropriate match of buffer conditions with no indication of dilution effects. The titration experiments were performed in duplicates, with 50-100 µM CypD in the cell and 500-2000 µM peptides in the syringe. For some of the titrations, data from two runs were concatenated to achieve a saturating isotherm. All data was analysed using the Origin®7 (OriginLab, Northampton, MA) software programme."}, "[8]": {"target": "T1, CypD", "experiment": "Isomerisation substrate test by NMR", "assay_type": "biochemical", "experimental": "(§2) NMR spectra were acquired on Bruker Avance III 800 MHz spectrometer equipped with [^1H, ^15N, ^13C]-cryoprobes. 1D and 2D spectra of αSyn peptide were performed using 1 mM peptide dissolved in 20 mM phosphate, 20 mM NaCl pH 6.5 at 298 K or 283 K. Resonance assignments of the proton spectra of αSyn peptide were obtained using ^1H-^1H 2D TOCSY (mixing time 60 ms) and NOESY spectra (mixing time 350 ms). […] The same buffer was used for obtaining the ^1H-^15N spectra of ^15N-labelled αSyn at 298 K. Experiments using ^15N-labelled αSyn fibrils were performed at 288 K. ^2H/^15N-labelled CypD was used to make the complex with intact αSyn in order to achieve the optimal conditions to observe shift perturbations, taking into account the size of the complex (~32kD). Backbone ^1H and ^15N resonances of CypD and αSyn were assigned using standard triple resonance to those assigned by ^13C, ^15N, ^1H-triple resonance HNCA, HN(CO)CA, HNCO, HN(CA)CO, CBCA(CO)NH, and CBCANH experiments."}, "[9]": {"test_system": "αSynC peptide (cis-trans isomerisation by CypD)", "experiment": "NMR detection of αSynC cis-trans isomerisation (1D line-broadening, 2D NOESY exchange cross-peaks)", "assay_type": "biochemical", "settings": "αSynC 1 mM, CypD 50uM, CsA 100uM, 283 K", "experimental": "as §2"}, "[10]": {"test_system": "αSyn effects on mitochondria / MPTP", "settings": "cited from earlier work", "from_the_text": "Cyclophilin D (CypD) is a mitochondrial peptidyl-prolyl isomerase that has been implicated to be involved in the mechanisms of many diseases, although it is best known as a regulator for the opening of the mitochondria permeability transition pore (MPTP). […] Co-immunoprecipitation experiments ..."}}, "note": "“Also recorded” adds a separate entry of the source."}
{"compound": "Cyclophilin A: Cyclophilin A", "values": [{"measurement": "binding to αSyn", "setting": "[1]", "result": "bind to αSyn, also at the C-terminus as well as to the preNAC sequence"}]}
{"compound": "Cyp40: cytosolic peptidyl prolyl isomerase, co-chaperone to Hsp90", "values": [{"measurement": "dissociation of fibrils", "setting": "[2]; Aβ fibrils", "result": "not amyloid-β (Aβ) fibrils"}, {"measurement": "dissociation of fibrils", "setting": "[3]; αSyn fibrils", "result": "dissociate tau, and αSyn"}, {"measurement": "dissociation of fibrils", "setting": "[4]", "result": "dissociate tau"}]}
{"compound": "CC(CN1c2ccccc2Sc2ccccc21)N(C)C", "note": "(centres unmarked) [promethazine]", "values": [{"measurement": "aggregation of human insulin and human lysozyme", "setting": "[5]", "result": "prevents the aggregation of human insulin and human lysozyme; also recorded: depolymerises preformed fibrils"}]}
{"compound": "CC12CC3CC(C)(C1)CC(N)(C3)C2", "note": "[memantine]", "values": [{"measurement": "Aβ aggregation and preformed Aβ fibrils", "setting": "[2]", "result": "inhibits Αβ aggregation; also recorded: disassembles preformed Aβ fibrils"}]}
{"compound": "C=CC[C@@H]1/C=C(\\C)C[C@H](C)C[C@H](OC)[C@H]2O[C@@](O)(C(=O)C(=O)N3CCCC[C@H]3C(=O)O[C@H](/C(C)=C/[C@@H]3CC[C@@H](O)[C@H](OC)C3)[C@H](C)[C@@H](O)CC1=O)[C@H](C)C[C@@H]2OC", "note": "[FK506]", "values": [{"measurement": "αSyn aggregation (FKBP inhibitor)", "setting": "[3]", "result": "prevent αSyn aggregation"}]}
{"compound": "epigallocatechin-3-gallate [EGCG]", "values": [{"measurement": "binding to C-terminus of monomeric αSyn", "setting": "[1]", "result": "binds to the C-terminus of monomeric αSyn"}, {"measurement": "dissociation of αSyn aggregates", "setting": "[3]", "result": "dissociates αSyn aggregates"}]}
{"compound": "FKBP12: peptidyl-prolyl isomerase immunophilin protein belonging to the FKBP family, cytoplasmic", "values": [{"measurement": "binding to αSyn", "setting": "[1]", "result": "shown to bind αSyn"}, {"measurement": "αSyn aggregation", "setting": "[3]", "result": "promoted αSyn aggregation"}]}
{"compound": "GVATVAEKTKEQVTN [αSynM, synthetic peptide 51–65 of αSyn, >98% pure]", "values": [{"measurement": "binding to CypD by NMR (in words)", "setting": "[6]", "result": "only slightly shifted from the positions in the free protein with minimal broadening observed for selected peaks; also recorded: very weak binding"}, {"measurement": "binding to CypD (ITC, in words)", "setting": "[7]", "result": "too weak to yield a reliable binding isotherm; also recorded: binds much more weakly"}, {"measurement": "interaction with CypD / isomerisation substrate", "setting": "[8]", "result": "not an isomerisation substrate of CypD"}]}
{"compound": "cyclosporine A [CsA]", "values": [{"measurement": "effect of CsA on exchange cross-peaks (CypD isomerase activity)", "setting": "[9]", "result": "exchange crosspeaks disappear"}, {"measurement": "effect of CsA on exchange cross-peaks (CypD isomerase activity)", "setting": "[9]; listed as Cyclosporine A", "result": "disappearance of the exchange cross-peaks"}, {"measurement": "rescue of αSyn effects on mitochondria", "setting": "[10]", "result": "can be rescued"}]}
